Results as given in publication PMC8129988 (Inorganic Chemistry Frontiers, 2021).
Counter-ions that a name gives are not always drawn.

Legend:
Type in all cases: cell-based, human
UM-UC-14 cells = assay: MTT vitality assay, 72 h; details: TFA up to 25 μM
Experimental: The sensitizing effect in this cell model was more pronounced for Co(acac)2LPonvs.Co(Meacac)2LPon reflecting the differences in the reduction potentials. Purification of the novel compounds was performed in the presence of 0.1% TFA, leading to the respective TFA salts.
As mentioned above, two stereoisomers of Co(acac)2LPon could be isolated. To clarify, whether there are differences in their anticancer activity, they were analyzed (in addition to the isomeric mixture) in UM-UC-14 cells by MTT assay. […] Accordingly, values for the isomeric mixture positioned intermediate. As expected, both stereoisomers and the isomeric mixture were distinctly activated by hypoxic conditions. The moderately higher activity of isomer 1 remained also under hypoxic conditions (Fig. S12A ^†). […]
Cells were seeded (3–7 × 10^4 cells per well) in 96-well plates and after 24 h recovery treated with increasing concentrations of compounds in triplicates. After 72 h drug exposure under normoxic or hypoxic cell culture conditions (0.1% O2) (ProOx Model C21 system, BioSpherix), the proportion of viable cells was determined by 3-(4,5-dimethylthiazol-2-yl)-2,5-diphenyltetrazolium bromide (MTT)-vitality assay (EZ4U, Biomedica, Vienna, Austria) or by luminescence assay based on adenosine triphosphate quantification (CellTiter-Glo, Promega, Madison, Wisconsin) following the manufacturer's recommendations. […]

[1] = test system: p-ERK1/2 and p-S6 in K-562 cells; assay: western blot of downstream signalling, 12 h; details: K-562, 12 h, western blot
Experimental: Fig. 10 Impact of the cobalt(III) complexes on the ERK1/2 and S6 under normoxic and hypoxic conditions. K-562 cells were treated with the compounds, after 12 h cell lysates were prepared and protein expression as well as phosphorylation levels of downstream pathways (p-ERK1/2 and p-S6) analyzed by western blotting. One representative experiment out of three is shown. The ratio of phosphorylated to total protein is given between the respective lanes.
K-562 cells were plated (5 × 10^5 cells per well) in 6-well plates and allowed to recover for 24 h. Subsequently, the cells were treated with the drugs in different concentrations. After 12 h cells were harvested, proteins were isolated, resolved by sodium dodecyl sulfate polyacrylamide gel electrophoresis (SDS/PAGE), and transferred onto a polyvinylidene difluoride membrane for western blotting. The following antibodies were used: ERK1/2 (p44/42) rabbit monoclonal antibody (mAb) (137F5, #4695), phospho-ERK1/2 rabbit mAb (Thr202/Tyr204) (20G11, #4376), phospho-S6 rabbit pAb (Ser240/244, #2215) (Cell Signaling Technology, Beverly, MA, USA), S6 mouse mAb (C-8. #sc-74459) (Santa Cruz Biotechnology, TX, USA) and β-actin mouse mAb (#A5441, Sigma). All primary antibodies were used in 1 : 1000 dilutions (in Tris-buffered saline containing 0.1% Tween20 (TBST) + 3% bovine serum albumin (BSA)). Secondary goat anti-mouse-IgG (Fc specific)-peroxidase antibody (#A0168, Sigma) and horseradish peroxidase(HRP)-labeled mouse anti-rabbit IgG (#sc-2357, Santa Cruz Biotechnology) were used at working dilutions of 1 : 10 000 (in TBST + 1% BSA).

[2] = test system: FGFR3-driven UM-UC-14 urothelial cancer cell model; assay: colony formation assay, 5 d; details: normoxic
Experimental: In order to investigate the impact of long-term oxygen restriction, clonogenic assays were performed in the FGFR3-dependent UM-UC-14 cell model (Fig. 9C).
UM-UC-14 cells were seeded at low densities of 3 × 10^3 cells per well in 24-well plates in 500 μL and after 24 h recovery treated with 100 μL of increasing concentrations of compounds in duplicates. Following drug exposure time of 5 days under normoxic or hypoxic (0.1% O2) culture conditions, cells were washed with phosphate-buffered saline (PBS), fixed with ice-cold methanol for 30 min at 4 °C and stained with crystal violet. Digital photographs were taken using a Nikon D3200 camera and processed with ImageJ software. For quantification, crystal violet was eluted using 2% sodium dodecyl sulfate (SDS) and color absorbance was measured at 560 nm at the Tecan infinite 200Pro (Zurich, Switzerland). Values are given in arbitrary units (a.u.) as mean ± SD normalized to untreated control.

Row | Structure (SMILES) | impact on cell viability (UM-UC-14 cells) | activity on ERK1/2 and S6 phosphorylation, normoxic vs hypoxic [1] | inhibition of clonogenic cell growth [2] [%]
1 | O=C(O)C(F)(F)F [TFA, trifluoroacetic acid] | no impact on cell viability | – | –
2 | Cc1ccc(C(=O)Nc2ccc(CN3CCN(C)CC3)c(C(F)(F)F)c2)cc1C#Cc1cnc2cccnn12 [ponatinib, reference compound] | – | equally active under the two oxygen conditions | 95
